Values joined by “and” are separate entries in the source; they are usually repeats but may differ in a detail not shown here. Equal entries are not always repeated.
Assays:
BALB/C mice = assay: In vivo imaging of Fluc-mRNA expression in mice delivered by LNP formulations; conditions: for average radiation intensity, 6 h / average radiation intensity, 24 h / average radiation intensity, 48 h / average radiation intensity, 7 d: LNP containing 10 pg Fluc-mRNA, intramuscular, female BALB/C mice
Protocol: The LNP formulation containing […] Fluc-mRNA was injected intramuscularly into female BALB/C mice aged 4-6 weeks old and weighed 17-19 g, and the mice were intraperitoneally injected with fluorescent imaging substrate at specific time points after administration (6h, 24 h, 48h and 7d), where the mice were allowed to move freely for 5 minutes, and then the average radiation intensity (corresponding to fluorescence expression intensity) of the protein expression of the mRNA carried by the LNP in the mice was detected by the IVIS Spectrum small animal in vivo imaging device. The test results are shown in Tables 11 to 14 and FIGS. 12 to 14.

293T cells [1] = assay: Cell survival rate determination (CCK-8); format: cell-based; conditions: for Cell survival rate (%): LNP formulation containing 1.5 μg Fluc-mRNA, 24 hours, CCK-8, absorbance at 450 nm; for cell survival rate lower than that of YK-101: cell survival rate of YK-101 minus that of named substance; for cell survival rate lower than that of YK-107: cell survival rate of YK-107 minus that of named substance; for cell survival rate lower than that of YK-108: cell survival rate of YK-108 minus that of named substance
Protocol: (§1) Cell recovery and passage: 293T cells were recovered, cultured in a culture dish, and passaged to the required number of cells.
(§2) Seeding plate: The cells in the culture dish were digested and counted. Cells were spread in a 96-well plate at 10,000 cells per well and in a 12-well plate at 150,000 cells per well. Cells were cultured overnight until the cells adhered to the wall.
An LNP formulation containing 1.5 μg of Fluc-mRNA (the cater component of the LNP formulation were cationic lipid, neutral lipid, structured lipid and polymer-conjugated lipid with a molar ratio of 49: 10: 39.5: 1.5, wherein the cationic lipid was listed in Table 1) and the formulation of Lipofectamine 3000 were added to the cell culture medium of a 96-well plate, and further cultivated for 24 hours. 10 μL of CCK-8 solution was then added to each well, and the culture plate was incubated in an incubator for 1 hour. The absorbance at 450 nm was measured by a microplate reader.

293T cells [2] = assay: Fluorescent detection of Fluc-mRNA (cell transfection efficiency of LNP formulations); format: cell-based; conditions: for Relative light unit (RLU): LNP formulation containing 0.3 μg Fluc-mRNA, 96-well plate, 24 hours; for Multiples (YK-101): RLU of YK-101 / RLU of named substance; for Multiples (YK-107): RLU of YK-107 / RLU of named substance; for Multiples (YK-108): RLU of YK-108 / RLU of named substance; for Ratio relative to SM-102: RLU of named substance / RLU of SM-102; for fluorescence absorption value, times that of HHMA: RLU of named substance / RLU of HHMA; for fluorescence absorption value, times that of Lipofectamine 3000: RLU of named substance / RLU of Lipofectamine 3000; for Fluc-mRNA expression signal intensity, times that of compound 21: RLU of named substance / RLU of compound 21; for fluorescence absorption value, times that of compound 23: RLU of named substance / RLU of compound 23
Protocol: as §1, §2
Cell recovery and passage: the method was the same as in Example 3.
Seeding plate: the method was the same as in Example 3.
An LNP formulation containing 0.3 μg of Fluc-mRNA (the carrier components of the LNP formulation were cationic lipid, neutral lipid, structured lipid and polymer-conjugated lipid with a molar ratio of 49:10:39.5:1.5, wherein the cationic lipid was listed in Table 1) was added to the cell culture medium of a 96-well plate, and further incubated for 24 hours. The corresponding reagent was added according to the instructions of the Gaussia Luciferase Assay Kit, and the fluorescence expression intensity of each well was detected by an IVIS fluorescence detection system. This test verified the transfection efficiencies of LNP formulations in cells, see Tables 3-6 for specific test results.

[3] = highest multiple, time point not stated

Structure (SMILES)	Cell survival rate (%) (293T cells [1])	Relative light unit (RLU) (293T cells [2])	Multiples (YK-101) (293T cells [2])	Multiples (YK-107) (293T cells [2])	Multiples (YK-108) (293T cells [2])	Ratio relative to SM-102 (293T cells [2])	cell survival rate lower than that of YK-101 (293T cells [1])	cell survival rate lower than that of YK-107 (293T cells [1])	cell survival rate lower than that of YK-108 (293T cells [1])	fluorescence absorption value, times that of HHMA (293T cells [2]) [times]	fluorescence absorption value, times that of Lipofectamine 3000 (293T cells [2]) [times]	Fluc-mRNA expression signal intensity, times that of compound 21 (293T cells [2]) [times]	fluorescence absorption value, times that of compound 23 (293T cells [2]) [times]	other results
CCCCCCCCCCOC(=O)CCCN(CCCO)CCCCCC(=O)OCC(CCCCCCCC)CCCCCCCC [YK-107, 2-octyldecyl 6-(4-(decyloxy)-4-oxobutyl)((3-hydroxypropyl)amino)hexanoate]	90.45	22361210	0.91	1.00	1.10	14.58								average radiation intensity, 6 h (BALB/C mice; 6 h): 1601250; average radiation intensity, 24 h (BALB/C mice; 24 h): 1302640; average radiation intensity, 48 h (BALB/C mice; 48 h): 226170; average radiation intensity, 7 d (BALB/C mice; 7 d): 13288
CCCCCCCCCCOC(=O)CCCN(CCCCCC(=O)OCCC(CCCCCC)CCCCCC)CC(O)CO (stereo not shown) [YK-114, 3-hexylnonyl 6-(4-(decyloxy)-4-oxobutyl)((2,3-dihydroxypropyl)amino)hexanoate]	68.33	1418926	14.33	15.76	17.38	0.92	21.79%	22.12%	21.53%	0.69	1.32	1.02	1.10	average radiation intensity of YK-101, times that of named substance (BALB/C mice; 6 h): 2.8 times; average radiation intensity of YK-107, times that of named substance (BALB/C mice; 6 h): 3.0 times; average radiation intensity of YK-108, times that of named substance (BALB/C mice; 6 h): 3.8 times; average radiation intensity of YK-101, times that of named substance (BALB/C mice; 24 h): 11.3 times; average radiation intensity of YK-107, times that of named substance (BALB/C mice; 24 h): 13.9 times; average radiation intensity of YK-108, times that of named substance (BALB/C mice; 24 h): 15.0 times; average radiation intensity of YK-101, times that of named substance (BALB/C mice; 48 h): 9.8 times; average radiation intensity of YK-107, times that of named substance (BALB/C mice; 48 h): 11.9 times; average radiation intensity of YK-108, times that of named substance (BALB/C mice; 48 h): 12.1 times; average radiation intensity of YK-101, times that of named substance (BALB/C mice; 7 d): 2.2 times; average radiation intensity of YK-107, times that of named substance (BALB/C mice; 7 d): 2.4 times; average radiation intensity of YK-108, times that of named substance (BALB/C mice; 7 d): 2.6 times; average radiation intensity, 6 h (BALB/C mice; 6 h): 535760; average radiation intensity, 24 h (BALB/C mice; 24 h): 93565; average radiation intensity, 48 h (BALB/C mice; 48 h): 19004; average radiation intensity, 7 d (BALB/C mice; 7 d): 5457; expression amount of mRNA in mice of YK-101, times that of named substance (BALB/C mice; [3]): up to 11 times; expression amount of mRNA in mice of YK-107, times that of named substance (BALB/C mice; [3]): ≤ 13 times
CCCCCCCCCCOC(=O)CCCN(CCCCCC(=O)OCCC(CCCCCC)CCCCCC)C[C@H](O)CO [YK-116, 3-hexylnonyl 6-(4-(decyloxy)-4-oxobutyl)(((S)-2,3-dihydroxypropyl)amino)hexanoate]	67.96	1321284	15.39	16.92	18.66	0.86	22.16%	22.49%	21.90%	0.65	1.23	0.95	1.02	
CCCCCCC(CCCCCC)CCOC(=O)CCCCCN(CCO)CCCCCC(=O)OCCCSSCCCCC [YK-110]	42.85	271783	74.82	82.28	90.74	0.18	40%	40%	40%	0.13	0.25	0.20	0.21	
CCCCCCCCCCOC(=O)CCCN(CCCCCC(=O)OCCC(CCCCCC)CCCCCC)C[C@H](C)O [YK-117, 3-hexylnonyl 6-(4-(decyloxy)-4-oxobutyl)(((S)2-hydroxypropyl)amino)hexanoate]	57.93	695716	29.23	32.14	35.45	0.45	32.19%	32.52%	31.93%	0.34	0.65	0.50	0.54	cell transfection efficiency, times that of YK-118 (293T cells [2]): 33 times; cell transfection efficiency, times that of YK-119 (293T cells [2]): 80 times
CCCCCCCCCCOC(=O)CCCN(CCCCCC(=O)OCCC(CCCCCC)CCCCCC)CCC(C)(C)O [YK-119, 3-hexylnonyl 6-(4-(decyloxy)-4-oxobutyl)((3-hydroxy-3-methylbutyl)amino)hexanoate]	80.27	8557				0.0056	9.85%	10.18%	9.59%	0.0042	0.0080	0.0062	0.0066	
CCCCCCC(CCCCCC)CCOC(=O)CCCCCN(CCO)CCCCCC(=O)OCCSCCCC [YK-112, 3-hexylnonyl-6-(6-(2-(butylthio)ethoxy)-6-oxohexyl)((2-hydroxyethyl)amino)hexanoate]	9.82	2012				0.0013	80.30% and 80%	80.63% and 80%	80.04% and 80%	0.0010	0.0019	0.0014	0.0016	
CCCCCCCCC(CCCCCCCC)COC(=O)CCCCCN(CCO)CCCCCC(=O)OCCSCCCC [YK-113, 2-octyldecyl 6-(6-(2-(butylthio)ethoxy)-6-oxohexyl)((2-hydroxyethyl)amino)hexanoate]	43.05	151694	134.05		162.57	0.10	47.07% and 40%	47.40% and 40%	46.81% and 40%	0.07	0.14	0.11	0.12	cell transfection activity, times that of YK-112 (293T cells [2]): up to 75 times
CCCCCCCCCCOC(=O)CCCN(CCCCCC(=O)OCCC(CCCCCC)CCCCCC)CCC(C)O (stereo not shown) [YK-118, 3-hexylnonyl 6-(4-(decyloxy)-4-oxobutyl)((3-hydroxybutyl)amino)hexanoate]	63.33	21310		1049.33	1157.23	0.0139	26.79%	27.12%	26.53%	0.0104	0.0199	0.0153	0.0165	
